Data from patent US20260176289A1, “SMALL MOLECULE INHIBITORS OF KRAS PROTEINS” (Merck Sharp & Dohme LLC, priority 2022, published 2026).

What was measured:
[1] = target: KRAS-G13D (Homo sapiens, UniProt P01116, G13D); experiment: SOS-catalyzed nucleotide exchange assay (Procedure A, TR-FRET), KRAS-G13D; type: biochemical; conditions: nucleotide exchange, Procedure A; read-out: KRAS G13D GNE IC50
[2] = target: HRAS (Homo sapiens, UniProt P01112); experiment: SOS-catalyzed nucleotide exchange assay (Procedure A, TR-FRET), HRAS; type: biochemical; conditions: read-out: HRAS GNE IC50
In short: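 Signal ratio (520/495 nm, excitation 340 nm) reports Bodipy-GDP retention on biotinylated RAS after SOS-catalyzed exchange with 3 mM GTP. SOS was 40 nM, except 160 nM for G12V. Room-temperature exchange lasted 60 min (90 min for G12V), following a 60 min compound preincubation.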

Sequence of HRAS (P01112 with tags, fused parts or gaps): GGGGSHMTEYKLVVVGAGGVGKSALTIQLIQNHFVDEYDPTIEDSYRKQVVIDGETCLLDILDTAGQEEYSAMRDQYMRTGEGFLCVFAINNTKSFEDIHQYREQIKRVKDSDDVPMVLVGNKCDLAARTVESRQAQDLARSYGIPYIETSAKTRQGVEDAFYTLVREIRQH
Sequence of KRAS-G13D (P01116 with tags, fused parts or gaps isoform P01116-2 G13D): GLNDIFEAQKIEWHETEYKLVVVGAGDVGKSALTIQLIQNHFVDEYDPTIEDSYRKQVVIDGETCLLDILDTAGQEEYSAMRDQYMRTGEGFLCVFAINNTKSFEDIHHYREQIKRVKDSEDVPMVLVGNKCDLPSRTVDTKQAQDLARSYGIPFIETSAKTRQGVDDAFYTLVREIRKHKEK

SMILES: C#Cc1c(F)ccc2cc(O)cc(-c3nccc4c5c(N6CCOC[C@@](C)(O)C6)nc(OC[C@@]67CCCN6C[C@H](F)C7)nc5n(C)c34)c12 [Ex-18, (S)-4-(8-(8-ethynyl-7-fluoro-3-hydroxynaphthalen-1-yl)-2-(((2R,7aS)-2-fluorotetrahydro-1H-pyrrolizin-7a(5H)-yl)methoxy)-9-methyl-9H-pyrido[4′,3′:4,5]pyrrolo[2,3-d]pyrimidin-4-yl)-6-methyl-1,4-oxazepan-6-ol]
- IC50 [1]: 2.66 nM
- IC50 [2]: 1820 nM
